Measurements published in patent publication US20080275085A1, “Piperidine derivative and use thereof” (priority 2007, published 2008).
Counter-ions that a name gives are not always drawn.

Key:
substance P receptor = target: T1, substance P receptor (Homo sapiens, UniProt P25103); experiment: Radioligand receptor binding inhibitory activity (125I-BHSP binding, receptor from IM-9 cells); conditions: receptor from human lymphoblast cells (IM-9); radioligand 125I-BHSP; 25° C., 30 min
T1 construct: The receptor was prepared from human lymphoblast cells (IM-9); endogenous in cells; host or cells: IM-9 human lymphoblast cells (membrane fraction, 100,000xG precipitate)
Method: Radioligand Receptor Binding Inhibitory Activity (Binding Inhibitory Activity Using Receptor from Human Lymphoblast Cells (IM-9))
The method of M. A. Cascieri et al., “Molecular Pharmacology, vol. 42, p. 458 (1992)” was modified and used. The receptor was prepared from human lymphoblast cells (IM-9).
IM-9 cells (2×10^5 cells/mL) were inoculated and incubated for 3 days, which was then subjected to centrifugation for 10 min. at 500×G to give cell pellets. The obtained pellets were washed with PBS (GIBCO), disrupted in buffer A (50 mM tris.hydrochloric acid buffer (pH 7.4) containing 120 mM sodium chloride, 5 mM potassium chloride, 2 μg/mL chymostatin, 40 μg/mL bacitracin, 40 μg/mL APMSF, 1 mM ethylenediamine tetra acetic acid) using a polytron.homogenizer [manufactured by Kinematika, Germany], and centrifuged at 100,000×G for 40 min. The precipitated fraction was suspended in buffer B (50 mM Tris-HCl (pH 7.4), 0.02% bovine serum albumin, 2 μg/mL chymostatin, 40 μg/mL bacitracin, 40 μg/mL APMSF, 3 mM MgCl2), which was then cryopreserved (−80° C.) as a receptor specimen.
Buffer B (50 μL) was added to a 96 well microassay plate (CORNING). Thereto was added 50 μL of membrane preparation suspended in buffer B at 250 μg/mL. A measurement buffer (50 μL) containing 2% dimethyl sulfoxide was added to examine total binding; 4 μM unlabeled SP (50 μL) diluted with a measurement buffer containing 2% dimethyl sulfoxide was added to examine non-specific binding; and 50 μL of a test compound (containing 2% dimethyl sulfoxide) diluted with a measurement buffer was added to examine binding inhibitory activity of the test compound. In addition, […] ^125I-BHSP solution (50 μL) was added to each well.
After reaction at 25° C. for 30 min, the cells were rapidly filtered through a GF/C filter plate (PerkinElmer) using a cell harvester (manufactured by PerkinElmer) to quench the reaction, and washed 10 times with 250 μL of 50 mM tris-HCl buffer (pH 7.4) containing 0.02% bovine serum albumin. The GF/C filter plate was dried, MicroScinti 0 (20 μL) was added, and the radioactivity was measured with TopCount (manufactured by PerkinElmer). The GF/C filter plate was immersed in 0.3% polyethylene imine for one day before use.
Specific binding is a value obtained by subtracting nonspecific binding from total binding. The binding inhibitory activity of a test compound is shown by a ratio of a value obtained by subtracting a measurement value with addition of a test compound from the total binding, relative to specific binding.
The antagonistic activity of the compounds obtained in the Examples was determined as a concentration necessary for causing 50% inhibition (IC50 value) under the above-described conditions, and the results shown in Table 34 were obtained.
The radio ligand means substance P labeled with [^125I].

T1 sequence (P25103 whole entry): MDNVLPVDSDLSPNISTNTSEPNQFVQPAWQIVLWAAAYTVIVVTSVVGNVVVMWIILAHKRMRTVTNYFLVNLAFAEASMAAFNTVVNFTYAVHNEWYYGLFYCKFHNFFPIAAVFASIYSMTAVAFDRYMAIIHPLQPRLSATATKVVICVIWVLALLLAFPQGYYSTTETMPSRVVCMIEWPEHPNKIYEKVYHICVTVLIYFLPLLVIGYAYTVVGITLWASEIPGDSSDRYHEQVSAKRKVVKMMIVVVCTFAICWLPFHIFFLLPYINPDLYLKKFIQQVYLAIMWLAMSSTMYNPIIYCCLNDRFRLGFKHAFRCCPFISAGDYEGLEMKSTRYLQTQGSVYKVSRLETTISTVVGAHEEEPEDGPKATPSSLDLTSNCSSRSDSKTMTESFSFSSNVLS

Row | SMILES | melting point | IC50 (substance P receptor)
1 | Cc1cc(F)ccc1[C@H]1CN(S(=O)(=O)C2CC2)CC[C@@H]1C(=O)N(C)[C@@H](C)c1cc(C(F)(F)F)cc(C(F)(F)F)c1 [Example 162, (3S,4S)—N-{(1S)-1-[3,5-bis(trifluoromethyl)phenyl]ethyl}-1-(cyclopropylsulfonyl)-3-(4-fluoro-2-methylphenyl)-N-methylpiperidine-4-carboxamide] | 154 to 156 °C | 0.081 nM
2 | Cc1cc(F)ccc1[C@@H]1CN(C2=CC(=O)C(C)(C)CC2)CC[C@H]1C(=O)N(C)Cc1cc(C(F)(F)F)cc(C(F)(F)F)c1 (relative stereo) [Example 119, (3R*,4R*)—N-[3,5-bis(trifluoromethyl)benzyl]-1-(4,4-dimethyl-3-oxocyclohex-1-en-1-yl)-3-(4-fluoro-2-methylphenyl)-N-methylpiperidine-4-carboxamide] | 137 to 138 °C | 0.06 nM
3 | Cc1cc(F)ccc1[C@@H]1CN(S(=O)(=O)N(C)C)CC[C@H]1C(=O)N(C)Cc1cc(C(F)(F)F)cc(C(F)(F)F)c1 (relative stereo) [Example 142, (3R*,4R*)—N-[3,5-bis(trifluoromethyl)benzyl]-1-[(dimethylamino)sulfonyl]-3-(4-fluoro-2-methylphenyl)-N-methylpiperidine-4-carboxamide] | 142 to 144 °C | 0.055 nM
4 | Cc1cc(F)ccc1[C@@H]1CN(C2=CC(=O)CC2)CC[C@H]1C(=O)N(C)Cc1cc(C(F)(F)F)cc(C(F)(F)F)c1 (relative stereo) [Example 118, (3R*,4R*)—N-[3,5-bis(trifluoromethyl)benzyl]-3-(4-fluoro-2-methylphenyl)-N-methyl-1-(3-oxocyclopent-1-en-1-yl)piperidine-4-carboxamide] | 192 to 193 °C | 0.06 nM
5 | Cc1cc(F)ccc1[C@H]1CN(CC(N)=O)CC[C@@H]1C(=O)N(C)[C@@H](C)c1cc(C(F)(F)F)cc(C(F)(F)F)c1 [Example 156, (3S,4S)-1-(2-amino-2-oxoethyl)-N-{(1S)-1-[3,5-bis(trifluoromethyl)phenyl]ethyl}-3-(4-fluoro-2-methylphenyl)-N-methylpiperidine-4-carboxamide] | 161 to 164 °C | 0.024 nM
6 | Cc1cc(F)ccc1[C@@H]1CN(CCC(C)(C)O)CC[C@H]1C(=O)N(C)Cc1cc(C(F)(F)F)cc(C(F)(F)F)c1 (relative stereo) (as salt: hydrochloride) (hydrate or solvate) [Example 123, (3R*,4R*)—N-[3,5-bis(trifluoromethyl)benzyl]-3-(4-fluoro-2-methylphenyl)-1-(3-hydroxy-3-methylbutyl)-N-methylpiperidine-4-carboxamide monohydrochloride] | 126 to 128 °C | –
7 | Cc1cc(F)ccc1[C@@H]1CN(CC(=O)N2CCC(O)CC2)CC[C@H]1C(=O)N(C)Cc1cc(C(F)(F)F)cc(C(F)(F)F)c1 (relative stereo) (as salt: hydrochloride) [Example 104, (3R*,4R*)—N-[3,5-bis(trifluoromethyl)benzyl]-3-(4-fluoro-2-methylphenyl)-1-[2-(4-hydroxypiperidin-1-yl)-2-oxoethyl]-N-methylpiperidine-4-carboxamide monohydrochloride] | 220 to 224 °C | –
8 | Cc1cc(F)ccc1[C@@H]1CN(S(=O)(=O)c2ccccn2)CC[C@H]1C(=O)N(C)Cc1cc(C(F)(F)F)cc(C(F)(F)F)c1 (relative stereo) [Example 144, (3R*,4R*)—N-[3,5-bis(trifluoromethyl)benzyl]-3-(4-fluoro-2-methylphenyl)-N-methyl-1-(pyridin-2-ylsulfonyl)piperidine-4-carboxamide] | 187 to 189 °C | 0.045 nM
9 | CCS(=O)(=O)N1CC[C@@H](C(=O)N(C)Cc2cc(C(F)(F)F)cc(C(F)(F)F)c2)[C@H](c2ccc(F)cc2C)C1 (relative stereo) [Example 132, (3R*,4R*)—N-[3,5-bis(trifluoromethyl)benzyl]-1-(ethylsulfonyl)-3-(4-fluoro-2-methylphenyl)-N-methylpiperidine-4-carboxamide] | 170 to 171 °C | 0.04 nM
10 | CC(=O)Nc1ccc(N2CC[C@@H](C(=O)N(C)Cc3cc(C(F)(F)F)cc(C(F)(F)F)c3)[C@H](c3ccc(F)cc3C)C2)nc1 (relative stereo) (as salt: hydrochloride) (hydrate or solvate) [Example 129, (3R*,4R*)-1-[5-(acetylamino)pyridin-2-yl]-N-[3,5-bis(trifluoromethyl)benzyl]-3-(4-fluoro-2-methylphenyl)-N-methylpiperidine-4-carboxamide monohydrochloride] | 213 to 215 °C | –
11 | CCOCCS(=O)(=O)N1CC[C@@H](C(=O)N(C)Cc2cc(C(F)(F)F)cc(C(F)(F)F)c2)[C@H](c2ccc(F)cc2C)C1 (relative stereo) [Example 138, (3R*,4R*)—N-[3,5-bis(trifluoromethyl)benzyl]-1-[(2-ethoxyethyl)sulfonyl]-3-(4-fluoro-2-methylphenyl)-N-methylpiperidine-4-carboxamide] | 151 to 153 °C | 0.078 nM
12 | Cc1cc(F)ccc1[C@@H]1CN(C2CCN(C(N)=O)CC2)CC[C@H]1C(=O)N(C)Cc1cc(C(F)(F)F)cc(C(F)(F)F)c1 (relative stereo) (as salt: hydrochloride) (hydrate or solvate) [Example 109, (3R*,4R*)—N^4-[3,5-bis(trifluoromethyl)benzyl]-3-(4-fluoro-2-methylphenyl)-N^4-methyl-1,4′-bipiperidine-1′,4-dicarboxamide monohydrochloride] | 175 to 178 °C | –
